Test results: patent publication US10758549B2, “Compositions of obeticholic acid and methods of use” (Intercept Pharmaceuticals, Inc., priority 2015, dated 2020)

How the values were obtained:
[1] = Example 10: clinical pharmacology / pharmacokinetics of OCA; format: in vivo, human; conditions: for systemic exposure versus dose: 5, 10, and 25 mg once daily for 14 days; for metabolite-to-parent ratio: after daily administration of obeticholic acid; for median time (Tmax) of peak plasma concentrations: glyco-OCA and tauro-OCA conjugates, multiple oral doses of OCA 10 mg once daily
Method: This example describes clinical pharmacology and dosing of obeticholic acid (OCA—including obeticholic acid compositions described herein). […] OCA can be supplied as an oral tablet containing obeticholic acid in a formulation as described herein.
Median Tmax for glyco-OCA and tauro-OCA is 10 hours.
Following an oral administration of 25 mg [^14C]-OCA, about 87% of the dose is excreted in feces through biliary secretion. Less than 3% of the dose is excreted in the urine with no detection of OCA.

[2] = normal hepatic function, Fixed; cited from earlier work
[3] = Physiologic pharmacokinetic model of OCA (population PK fit and simulations); set-up: species or system human; conditions: normal hepatic function, model estimate
Method: Plasma levels of OCA and its conjugates were measured in healthy subjects and cirrhotic patients with varying degrees of hepatic impairment. A physiologic pharmacokinetic model for OCA was developed to quantitatively describe the absorption, distribution, metabolism, and excretion of OCA in patients with and without hepatic impairment. The model was based on a published multi-compartment PK model for CDCA, and consisted of systemic, hepatobiliary, and intestinal systems. The model was used to simulate the pathophysiological abnormalities caused by cirrhosis including decreased hepatic uptake, portal-systemic shunting, decreased liver volume, and differences in amino acid conjugation.
This examples describes development of a physiologic PK model to quantitatively describe the absorption, distribution, metabolism, and excretion of OCA. In addition, the model was used to define the effects of hepatic impairment to predict the systemic and liver exposure to OCA in subjects with various degrees of liver impairment relative to healthy subjects with normal liver function. The model was developed based on 3 studies in healthy volunteers and 2 studies in patients with varying degrees of hepatic impairment […].
Data from was used to develop the model in healthy subjects (n=160) and then adjust for hepatic impairment (n=32) using the data from the above Examples. After development, the model was validated with data sourced from healthy subjects and cirrhotic patients.
The data used in model development included subject identifiers, time of dosing and sample collection, plasma drug concentrations (OCA, glyco-OCA, and tauro-OCA), dose amount, disease status (e.g., Child-Pugh score), and meal consumption information. Study participants received standardized meals at specified times during inpatient observation. Gallbladder contraction was assumed to last 90 minutes after the start of a meal. Drug concentrations below the limit of quantification (BLQ) were imputed to half of the lower limit of quantification (LLOQ). Observed and BLQ concentrations of OCA, glyco-OCA, and tauro-OCA associated with samples drawn prior to the first dose were excluded from the analyses.
A number of structural modifications were made to the base CDCA model in order to adapt it for use with OCA. For simplification, a single space was used to represent the gut (small and large intestines). Since OCA is an exogenous molecule, it was assumed that there was no endogenous synthesis and an absorption compartment with a first-order transfer coefficient (Ka) was included to represent the administration and absorption kinetics of an oral OCA dose. Based on steric hindrance by the 6-ethyl group of OCA, no bacterial 7-alpha dehydroxylation biotransformation activity (i.e., CDCA to lithocholic acid) was included in the model. Compartment volumes in the model were fixed to physiological values from the base CDCA model. The OCA model used the physiological flow values for blood, bile and gastrointestinal transit from the original physiologic PK model for CDCA, with the exception of flows from bile duct to gallbladder and from bile duct to gut. The physiological values from the base model led to poor predictions and may not be applicable due to the simplification of the enteral system into a unified gut compartment. The biotransformation and transport rates in the model, being dependent on chemical entity structure, were estimated by fitting the model to the plasma concentration time profiles of OCA, glyco-OCA, and tauro-OCA.
The PK model was first developed using the OCA, glyco-OCA, and tauro-OCA plasma concentration time profiles from healthy volunteers with normal hepatic function. Model parameter estimates related to healthy physiology were then held constant while the PK model was further developed using OCA, glyco-OCA, and tauro-OCA plasma concentration time profiles from patients with hepatic impairment (Child-Pugh scores A, B, and C). […]

[4] = molecular target: T1, farnesoid X receptor (FXR) (Homo sapiens, UniProt Q96RI1); conditions: in vitro / on FXR; cited from earlier work
T1 sequence (Q96RI1 1-486): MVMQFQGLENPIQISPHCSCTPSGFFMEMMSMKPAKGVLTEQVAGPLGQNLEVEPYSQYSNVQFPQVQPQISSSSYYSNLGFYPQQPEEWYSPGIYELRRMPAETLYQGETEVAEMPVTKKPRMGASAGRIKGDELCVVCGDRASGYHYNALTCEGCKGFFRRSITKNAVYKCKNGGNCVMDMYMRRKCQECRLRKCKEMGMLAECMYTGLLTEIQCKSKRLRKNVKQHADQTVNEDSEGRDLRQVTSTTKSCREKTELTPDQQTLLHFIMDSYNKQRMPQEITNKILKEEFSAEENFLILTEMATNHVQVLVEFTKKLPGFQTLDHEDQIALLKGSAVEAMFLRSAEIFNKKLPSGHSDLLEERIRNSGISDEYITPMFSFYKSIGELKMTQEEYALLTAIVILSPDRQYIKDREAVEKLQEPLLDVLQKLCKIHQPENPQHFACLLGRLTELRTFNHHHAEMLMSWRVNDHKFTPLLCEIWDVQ

metabolite-to-parent ratio [1]	median time (Tmax) of peak plasma concentrations [1] [h]	b38: Glyco-OCA rate of deconjugation to OCA [3] [h⁻¹]	t9: Glyco-OCA transport rate from sinusoidal space to liver [3] [h⁻¹]	t19: Glyco-OCA transport rate from liver to bile duct [3] [h⁻¹]	t33: Glyco-OCA rate of absorption from gut to portal space [3] [h⁻¹]	b37: Tauro-OCA rate of deconjugation to OCA [3] [h⁻¹]	t11: Tauro-OCA transport rate from sinusoidal space to liver [3] [h⁻¹]	t21: Tauro-OCA transport rate from liver to bile duct [3] [h⁻¹]	t35: Tauro-OCA rate of absorption from gut to portal space [3] [h⁻¹]	SMILES	systemic exposure versus dose [1]	t12: Glyco-OCA and tauro-OCA transport rate from liver to sinusoidal space [2] [h⁻¹]	pharmacological activity relative to OCA (parent drug) [4]
13.8	10	0.0431	1210	7.44	0.904	–	–	–	–	CC[C@H]1[C@@H](O)[C@@H]2[C@H](CC[C@]3(C)[C@@H]([C@H](C)CCC(=O)NCC(=O)O)CC[C@@H]23)[C@@]2(C)CC[C@@H](O)C[C@@H]12 [glyco-OCA]	increase more than proportionally with dose	1.62	nearly equipotent
12.3	10	–	–	–	–	0.0200	1615	9.28	1.62	CC[C@H]1[C@@H](O)[C@@H]2[C@H](CC[C@]3(C)[C@@H]([C@H](C)CCC(=O)NCCS(=O)(=O)O)CC[C@@H]23)[C@@]2(C)CC[C@@H](O)C[C@@H]12 [tauro-OCA]	increase more than proportionally with dose	1.62	nearly equipotent
